For 64 compounds, melting point results are on record in a melting point compilation (Tetko et al.; mined from patent text by program, amines drawn as free bases though some values may be those of a salt).

Structures are written as SMILES.

`NC(=O)[C@@H]1[C@H](Nc2c(Br)cnc3[nH]c(-c4ccsc4)nc23)[C@H]2C=C[C@@H]1C2`: the melting point fell in the range of 238 to 241 °C. The value for `CCCNc1nnc(Cc2c(Cl)cncc2Cl)c2ccc(OC)cc12` was 222 to 223 °C; that for `FC(F)(F)c1n[nH]c(-c2nc3ccccc3[nH]2)n1` was 247 °C; that for `CC(=O)NC(C)Cc1ccc(CCCC(=O)O)cc1` (centres undefined) was 114 to 117 °C.

Compound `Cc1[nH]c2ccccc2c1C1=C(c2c(C)[nH]c3ccccc23)C(=O)NC1=O` returned a melting point of 311 to 313 °C. The compound `COc1ccc2c(c1)CC(=O)N2` returned a melting point of 148 to 150 °C. The value for `CCN(C)C(=O)NC(=N)SC` was 74 to 76 °C. `CC(=O)NCC1CN(c2ccc3c(c2)OCC2CN(C(=O)c4cc5ccccc5[nH]4)CCN32)C(=O)O1` (centres undefined) returned a melting point above 250 °C. To `Cc1ccnc(NC(=O)c2c(-c3ccc(F)cc3)c(-c3ccc(F)cc3)cn2C(C)C)n1` belongs 165 to 166 °C; to `COC(=O)C(Sc1ccccc1)c1ccc(I)cc1` (centres undefined), 62.5 to 65 °C; to `O=C(NO)c1ccc(C(=O)NOCC2CCc3ccccc3C2)cc1` (centres undefined), 184 to 186 °C. To `COC(=O)c1cnoc1-c1ccc(Cl)cc1Cl` belongs 83 to 84 °C; to `Cc1cccc(-n2nc3c(c2OS(=O)(=O)C(F)(F)F)CCC3)n1`, 146 to 148 °C; to `Cc1c(NC(=O)CC(C)(C)C)c(C)c2c(c1-c1cccc(N(C)C)c1)OCC2c1ccc(C(C)C)cc1` (centres undefined), 197 to 199 °C. The value for `CC1CCCCN1CCC(=O)Nc1ccc2c(=O)c3ccc(NC(=O)CCN4CCCCC4C)cc3[nH]c2c1` (centres undefined) was above 320 °C; that for `Nc1ncnc2c1c(-c1ccc(Oc3ccccc3C=O)cc1)cn2C1CCOC1` (centres undefined) was 185 to 187 °C.

`CCOc1cc(CCCOc2c(CC(=O)O)cccc2OC)n(Cc2ccc(Cl)cc2Cl)n1` came in with a melting point of 109 to 110 °C. With `CC1=CC2c3cccc4[nH]c(SC(C)C)c(c34)CC2N(C)C1` (centres undefined), the melting point lay in the range of 145 to 147 °C. Compound `CCOC(=O)c1nn(-c2ccccc2)c2c1CCCc1ccccc1-2` yielded a melting point of 110 to 111 °C. To `Fc1ccc(-c2nc(CCCSc3ccccc3)[nH]c2-c2ccncc2)cc1` belongs 98 to 99 °C; to `COC(=O)c1cc(NC(=O)OC(C)(C)C)c(N)cc1C#Cc1ccccc1`, 164 °C; to `Nc1cc(N)c(Cl)cc1Cl`, 138 to 141 °C.

As to `CC1=C(c2ccncc2)SC(c2ccc(O)cc2)C(=O)N1` (centres undefined), the melting point is 198 to 200 °C. Compound `CCOC(=O)C1CCC(n2nc(-c3c(-c4ccccc4)nn4ccccc34)ccc2=O)CC1` (centres undefined) came in with a melting point of 156 to 160 °C.

In the case of `FC(F)(F)c1nc2ccc(Cn3ccnc3)cc2n1CC1CCCCC1`, the melting point turned out to be 165 °C. The value for `O=c1c(Cl)c(Cl)cnn1COCc1ccccc1` was 60 to 64 °C.

Regarding `Cc1nc(-c2ccccc2)nc(OCC(=O)Nc2ccccc2)c1C`, the melting point fell in the range of 212 to 213 °C. To `CS(=O)(=O)c1nnc(C(F)F)s1` belongs 59 °C. `CCN(CC)C(=O)c1ccc2ccccc2c1-c1ccccc1F`: the melting point fell in the range of 137 to 140 °C. For the compound `CCCCCC(C(=O)c1ccccc1)C(=O)c1ccccc1`, the melting point lay in the range of 68.5 to 69.5 °C. To `Cc1cc(Cc2cnc(NCCSCc3cc(CN(C)C)ccn3)[nH]c2=O)cnc1C` belongs 72 to 78 °C; to `CN1CCN(c2n[nH]c(=S)n2C2CCc3ccccc3C2)CC1` (centres undefined), 217 to 218 °C.

`C=C(COCC(=C)C(=O)O)C(=O)O` came in with a melting point of 177 °C. `COc1ccc(C(O)CCS(=O)(=O)c2ccc(S(N)(=O)=O)s2)cc1` (centres undefined): the melting point was 129 to 130 °C. Regarding `CC(C)(C)OC(=O)c1cc(I)ccc1OCc1ccc2ccccc2c1`, the melting point is 90 °C.

`Cc1ccc(S(=O)(=O)OCC(O)Cc2cc(Cl)c3ccccc3c2OCc2ccccc2)cc1` (centres undefined): the melting point fell in the range of 85 to 87 °C. The value for `CCN(CC)c1ccc(/C=C/C(=O)CC(=O)/C=C/c2ccc3cc[nH]c3c2)c(OCc2ccccc2)c1` was 160 to 163 °C; that for `Cc1nc(-c2cccc(C(=O)O)c2)nn1-c1cccc(F)c1` was 236 to 238 °C. To `CC(=O)c1cc(Br)c(N)c(CN(C)C)c1` belongs 92 to 95 °C. The value for `O=C(c1ccc(F)cc1)c1ccc(Br)nc1` was 97 to 98 °C; that for `CCCC[C@H](NC(=O)[C@H](CC(C)C)NC(=O)COc1ccc(Cl)cc1)C(=O)CSCc1ccco1` was 66 to 67 °C.

In the case of `Cc1ccc(N2C(=O)c3nccnc3C2=O)nc1`, the melting point stood at 240 °C. `Cc1cc(O)cc(O)c1C(=O)NNC(=O)C(O)c1ccccc1` (centres undefined) returned a melting point of 188 to 189 °C.

As for `Cc1ccc(C(=C/C=C/C(=O)Oc2ccc([N+](=O)[O-])cc2)c2ccc(C)cc2)cc1`, the melting point came out at 154 °C. To `CCOC(=O)c1cc(Br)c2ccccn2c1=O` belongs 156 to 158 °C; to `Cc1csc2c(Br)c(C=O)sc12`, 127 to 129 °C. The value for `CNC1(C)CN(c2c(F)cc3c(=O)c(C(=O)O)cn(C4CC4)c3c2F)C1` was above 300 °C. Consider `COc1cc(OC)c(-c2cccs2)cc1/C=C/C(=O)c1ccc(S(=O)(=O)NN2CCCCC2)cc1`, for which the melting point lay within 174 to 176 °C. To `COc1cn(-c2ccc(N3CC4(CC4)OC3=O)cc2F)nc(-c2ccnn2-c2ccccc2)c1=O` belongs 200 to 201 °C; to `C=C1COc2c(N3CCC(NC(=O)OC(C)(C)C)C3)c(F)cc3c(=O)c(C(=O)O)cn1c23` (centres undefined), 219 to 220 °C. On to `CC(C)(CN)Nc1ncc2ncnc(Nc3ccc(F)c(Cl)c3)c2n1`, for which the melting point was 196 to 201 °C. To `COC(=O)C=NOCc1c(F)cccc1COc1ccccc1C` belongs 108 °C. With `COc1cc(OC)c(C23CC4CC(CC(C4)C2)C3)cc1C=O`, the melting point was in the range of 152 to 154 °C.

As to `ClCCCCOc1ccccc1/C=C/c1nc2ccccc2o1`, the melting point is 92 to 93 °C. On to `CC(C)(C)OC(=O)N1CCC(Oc2ccc(C3=NNC(=O)CC3)c(F)c2)CC1`, for which the melting point lay in the range of 146 to 148 °C. To `CC(C)Nc1cccnc1N1CCN(C(=O)c2ccc(C(=O)NCCCN3CCOCC3)cc2)CC1` belongs 103 °C.

In turn, `O=C(COC1Cc2cccc(O)c2CC1OCC(=O)N1CCOCC1)N1CCOCC1` (centres undefined) had a melting point of 68 to 77 °C. The value for `Cc1ccc(OC2CCN(C(C=O)Nc3ccc4c(c3)OCC(=O)N4)CC2)cc1` (centres undefined) was 223 to 224 °C; that for `Cc1cc(C)cc(-c2nc(NC(=O)c3ccncc3)sc2-c2ccncc2)c1` was 302 to 304 °C; that for `CCCCCCSCCSc1nc2nc(C)cc(O)n2n1` was 126 °C.

With `COc1ccc(/C=C/c2ccccc2)c(OC)c1OC`, the melting point lay in the range of 79 to 82 °C. To `CCCCc1ccc(OC(=O)c2ccc(-c3ccc(CC(CC)CCCC)cc3)cc2)c(C#N)c1` (centres undefined) belongs 37 °C; to `O=Cc1ccc2c(c1)S(=O)c1ccccc1C=C2` (centres undefined), 188 to 190 °C; to `COc1cc(C2C3=C(COC3=O)Nc3ccc4cc[nH]c4c32)cc(OC)c1OC` (centres undefined), 299 to 301 °C.

By melting point is commonly meant the temperature of the solid-liquid transition.
